Here are results for four compounds from US9821018B2, “Composition comprising Raphanus, Theobroma and Passiflora for treating opioid and alcohol abuse” (priority 2012, dated 2017).

In one assay the test system is PTZ-induced convulsions. As to conditions: mice, i.p.; safranal 0.15 and 0.35 ml/kg body weight, crocin 22 mg/kg; cited from earlier work.
Assay [1] concerns morphine-induced place preference. As to conditions: i.p.; extract 10, 50 and 100 mg/kg, safranal 1, 5 and 10 mg/kg; cited from earlier work.
The next assay has as its system brain serotonin. Description: brain serotonin concentration by ELISA. The assay is classed as in vivo, Male Wistar rats. As to conditions: i.p., 30 min after injection; fluoxetine 10 mg/kg, desipramine 50 mg/kg, Raphanus extract 2-256 mg/kg; vs saline. How it is done:
(§1) Male Wistar rats (250-300 g, Amman-Jordan) were used throughout the study (8 rats for each experiment). Animals were housed in groups of 4/cage in a 12/12 h light-cycle (lights on at 07.00 a.m.), with ad-lib food and water available. The animals were randomly allocated to different groups of the experiment. All experiments were conducted in accordance with standard ethical guidelines and approved by the local ethical Committee University of Medical Committee on the Use and Care of Animals, 81/021, Jul. 10, 2011 (Petra University, Amman, Jordan)).
(§2) Fluoxetine hydrochloride [N-methyl-3-[(4-trifluoromethyl) phenoxy]-3-phenylpropylamine hydrochloride] and desipramine hydrochloride [10-11-dihydro-N-methyl-5H-dibenz (Z) [b, f] azepine-5-propanamine hydrochloride] (TOCRIS Bioscience, UK) were dissolved in sterile saline and administered intraperitoneally at a concentration of 1 ml/kg; the extract was prepared immediately before use. The control groups were administered saline.
(§3) The Raphanus sativus extract used was prepared in Jordan. To prepare the extract, 100 g of dried and milled […] was extracted with 1000 ml distilled water by maceration. […] The extract was dissolved in normal saline and immediately administered to the animals. […]

The next assay deals with brain dopamine. Description: brain dopamine concentration by ELISA. The assay is classed as in vivo, Male Wistar rats. As to conditions: i.p., 30 min after injection; fluoxetine 10 mg/kg, desipramine 50 mg/kg, Raphanus extract up to 256 mg/kg (most potent). The method, then: as §1, §2, §3

Where a name gives a salt, the structure may show the parent alone.

On to `CC(/C=C/C=C(\C)C(=O)O[C@@H]1O[C@H](CO[C@@H]2O[C@H](CO)[C@@H](O)[C@H](O)[C@H]2O)[C@@H](O)[C@H](O)[C@H]1O)=C\C=C\C=C(C)\C=C\C=C(/C)C(=O)O[C@@H]1O[C@H](CO[C@@H]2O[C@H](CO)[C@@H](O)[C@H](O)[C@H]2O)[C@@H](O)[C@H](O)[C@H]1O` [Crocin, crocin], for which the anticonvulsant activity result in the assay on PTZ-induced convulsions is “did not show anticonvulsant activity”. In the case of `CC1=C(C=O)C(C)(C)CC=C1` [Safranal, safranal], the “acquisition and expression of morphine CPP” value in assay [1] is on record as “The same results were obtained”. Also, the anticonvulsant activity entry in the assay with PTZ-induced convulsions was “reduced the seizure duration, delayed the onset of tonic convulsions, and protected mice from death”. `CNCCCN1c2ccccc2CCc2ccccc21` [desipramine, 10-11-dihydro-N-methyl-5H-dibenz (Z) [b, f] azepine-5-propanamine hydrochloride]: in the assay with brain serotonin, the brain serotonin levels result was “neither desipramine nor Raphanus extract can increase brain serotonin levels”. For the same compound, the “dopamine concentration in the brain” value in the assay on brain dopamine was “can increase dopamine concentration in the brain”. As for `CNCCC(Oc1ccc(C(F)(F)F)cc1)c1ccccc1` (stereo not shown) [fluoxetine, N-methyl-3-[(4-trifluoromethyl)phenoxy]-3-phenylpropylamine hydrochloride], in the assay on brain serotonin, the brain serotonin levels entry is “can increase brain serotonin levels significantly”. Also, the “dopamine concentration in the brain” value with brain dopamine is reported as “can increase dopamine concentration in the brain”.
